14 compounds from the Kinase Knowledgebase extract (Sharma et al. 2016) can be followed below.

This assay concerns the target MAPK14 (UniProt Q16539). Kind of assay: Assessment of MAPK14 Kinase Activity Using Spectrophotometric Assay. The conditions noted are these: for inhibition: concentration not given here.

By inhibition is commonly meant the change of the read-out against control, counted positive when it falls. For orientation: IC50 means the concentration that inhibits the measured activity by half. Higher therefore signals weaker potency in that assay.

Chain of MAPK14 (Q16539 whole entry, looked up): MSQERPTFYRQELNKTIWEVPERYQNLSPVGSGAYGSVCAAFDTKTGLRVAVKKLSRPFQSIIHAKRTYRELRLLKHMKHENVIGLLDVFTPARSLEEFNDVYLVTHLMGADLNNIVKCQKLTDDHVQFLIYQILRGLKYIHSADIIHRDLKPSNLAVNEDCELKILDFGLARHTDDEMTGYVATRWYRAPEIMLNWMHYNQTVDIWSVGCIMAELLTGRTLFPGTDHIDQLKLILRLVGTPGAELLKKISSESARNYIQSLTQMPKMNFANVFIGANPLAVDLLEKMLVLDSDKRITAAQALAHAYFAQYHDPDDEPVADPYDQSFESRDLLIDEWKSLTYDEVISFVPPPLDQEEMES

`Cc1ccc(NC(=O)Nc2cc(C(C)(C)C)nn2-c2cccc(CC(N)=O)c2)cc1Nc1ncccn1` displayed an inhibition of 90%.

Regarding `CC(C)(C)c1cc(NC(=O)Nc2cccc(-c3ncccn3)c2)n(-c2cccc(CC(N)=O)c2)n1`, the inhibition was 57%.

`CC(C)(C)c1cc(NC(=O)N2=CC=C3C=CC=CC3=C2)n(n1)c4cccc(CCC(=O)O)c4` showed an inhibition of 58%.

Regarding `O=C(Nc1cccc(Cl)c1Cl)Nc1cc(-c2ccccc2F)nn1-c1ccc(CC(=O)N2CC[C@H](CO)C2)cc1`, the IC50 came out at 37 nM. This counts as double-digit nanomolar.

In turn, `CC(C)(C)c1cc(NC(=O)Nc2cccc(Cl)c2Cl)n(-c2cccc(CC(=O)O)c2)n1` showed an IC50 of 22 nM.

Turning to `O=C(O)CCc1ccc(-n2nc(-c3cccs3)cc2NC(=O)Nc2cccc(Cl)c2Cl)cc1`, the IC50 stood at 30 nM.

The compound `CC(C)(C)c1cc(NC(=O)Nc2cccc(Cl)c2)n(-c2cccc(CN)c2)n1` had an IC50 of 110 nM.

In turn, `CN1C(=O)C(c2cccc(NC(=O)Nc3cc(C(C)(C)C)nn3-c3ccc4c(c3)CCN4S(C)(=O)=O)c2)C=C2C=NC=NC21` (centres undefined) registered an IC50 of 28 nM.

Consider `CN1C(=O)C(c2cccc(NC(=O)Nc3cc(C(C)(C)C)nn3-c3ccc4c(c3)CCN4)c2)C=C2C=NC=NC21` (centres undefined), for which the IC50 was 13 nM.

`CC(C)(C)c1cc(NC(=O)Nc2cccc3c2C=NC3=O)n(-c2cccc(CC(N)=O)c2)n1` came in with an IC50 of 120 nM.

In turn, `CC(C)(C)c1cc(NC(=O)Nc2cccc(Cl)c2Cl)n(-c2ccc(CCC(=O)O)cc2)n1` yielded an IC50 of 14 nM.

Take `NC(=O)Cc1cccc(-n2nc(C3CCCC3)cc2NC(=O)Nc2ccc(-c3cccc4c3C=NC4=O)cc2)c1`: the inhibition amounted to 82%.

In the case of `CC(O)c1cc(-n2nc(C(C)(C)C)cc2NC(=O)Nc2cccc(Cl)c2Cl)cc2ccccc12` (centres undefined), the IC50 came to 150 nM.

In turn, `COc1cccc(-n2nc(C(C)(C)C)cc2NC(=O)Nc2cccc(Br)c2)c1` showed an IC50 of 354 nM.
